ChEMBL document CHEMBL1909046, “DrugMatrix in vitro pharmacology data”

Columns and labels:
[1] = DRUGMATRIX: Nicotinic Acetylcholine radioligand binding (ligand: [125I] Epibatidine); assay type: cell membranes, Membrane; settings: imr-32; Not Active = under 50% inhibition at 10 µM
[2] = molecular target: T1, Alpha-2A adrenergic receptor (Homo sapiens, UniProt P08913); assay type: cell membranes, Sf9, Membrane; settings: sf9; note: in other assays of this panel Not Active means under 50% inhibition at 10 µM
T1 sequence (P08913 whole entry): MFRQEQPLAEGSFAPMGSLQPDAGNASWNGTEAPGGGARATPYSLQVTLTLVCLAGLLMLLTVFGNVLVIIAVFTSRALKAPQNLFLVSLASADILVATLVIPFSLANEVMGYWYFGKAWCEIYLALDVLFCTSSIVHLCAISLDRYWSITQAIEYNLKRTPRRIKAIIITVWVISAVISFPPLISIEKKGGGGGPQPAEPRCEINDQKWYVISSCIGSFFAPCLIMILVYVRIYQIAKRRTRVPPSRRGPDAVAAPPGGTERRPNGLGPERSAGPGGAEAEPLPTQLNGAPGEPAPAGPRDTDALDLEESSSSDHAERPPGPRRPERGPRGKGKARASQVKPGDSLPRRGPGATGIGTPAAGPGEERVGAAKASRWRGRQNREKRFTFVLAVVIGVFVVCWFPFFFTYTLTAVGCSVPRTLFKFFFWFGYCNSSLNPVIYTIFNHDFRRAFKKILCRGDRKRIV

Cytochrome P450 2E1 = Cytochrome P450 2E1 (Homo sapiens, UniProt P05181); settings: bti-tn-5b1-4; note: in other assays of this panel Not Active means under 50% inhibition at 10 µM
Chain of Cytochrome P450 2E1 (P05181 whole entry): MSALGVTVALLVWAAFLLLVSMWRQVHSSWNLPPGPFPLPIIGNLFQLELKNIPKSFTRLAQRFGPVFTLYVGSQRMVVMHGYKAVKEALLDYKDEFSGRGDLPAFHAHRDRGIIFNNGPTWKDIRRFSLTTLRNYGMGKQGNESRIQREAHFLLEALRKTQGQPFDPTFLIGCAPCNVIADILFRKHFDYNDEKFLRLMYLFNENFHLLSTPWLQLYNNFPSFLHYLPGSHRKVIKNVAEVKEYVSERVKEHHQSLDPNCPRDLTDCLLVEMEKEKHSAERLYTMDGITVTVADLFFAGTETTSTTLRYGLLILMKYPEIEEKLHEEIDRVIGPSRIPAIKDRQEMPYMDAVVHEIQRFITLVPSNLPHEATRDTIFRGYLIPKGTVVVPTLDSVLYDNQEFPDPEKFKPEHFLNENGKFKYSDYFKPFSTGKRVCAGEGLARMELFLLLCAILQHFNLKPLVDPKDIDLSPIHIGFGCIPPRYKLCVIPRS

[3] = molecular target: Sigma non-opioid intracellular receptor 1 (Homo sapiens, UniProt Q99720); test: DRUGMATRIX: Sigma1 radioligand binding (ligand: [3H] Haloperidol); assay type: cell membranes, Jurkat, Membrane; settings: Not Active = under 50% inhibition at 10 µM
Chain of Sigma non-opioid intracellular receptor 1 (Q99720 whole entry): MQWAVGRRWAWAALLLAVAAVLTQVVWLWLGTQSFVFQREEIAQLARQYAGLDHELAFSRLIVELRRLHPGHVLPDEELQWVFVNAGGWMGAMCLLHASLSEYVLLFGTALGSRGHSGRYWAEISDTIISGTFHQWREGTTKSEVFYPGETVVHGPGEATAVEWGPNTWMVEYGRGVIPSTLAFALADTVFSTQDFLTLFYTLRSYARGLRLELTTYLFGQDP

[4] = molecular target: Epidermal growth factor receptor (Homo sapiens, UniProt P00533); test: DRUGMATRIX: Protein Tyrosine Kinase, EGF Receptor enzyme inhibition (substrate: Poly(Glu:Tyr)); assay type: cell-based, Insect cells; settings: Not Active = under 50% inhibition at 10 µM
Chain of Epidermal growth factor receptor (P00533 whole entry): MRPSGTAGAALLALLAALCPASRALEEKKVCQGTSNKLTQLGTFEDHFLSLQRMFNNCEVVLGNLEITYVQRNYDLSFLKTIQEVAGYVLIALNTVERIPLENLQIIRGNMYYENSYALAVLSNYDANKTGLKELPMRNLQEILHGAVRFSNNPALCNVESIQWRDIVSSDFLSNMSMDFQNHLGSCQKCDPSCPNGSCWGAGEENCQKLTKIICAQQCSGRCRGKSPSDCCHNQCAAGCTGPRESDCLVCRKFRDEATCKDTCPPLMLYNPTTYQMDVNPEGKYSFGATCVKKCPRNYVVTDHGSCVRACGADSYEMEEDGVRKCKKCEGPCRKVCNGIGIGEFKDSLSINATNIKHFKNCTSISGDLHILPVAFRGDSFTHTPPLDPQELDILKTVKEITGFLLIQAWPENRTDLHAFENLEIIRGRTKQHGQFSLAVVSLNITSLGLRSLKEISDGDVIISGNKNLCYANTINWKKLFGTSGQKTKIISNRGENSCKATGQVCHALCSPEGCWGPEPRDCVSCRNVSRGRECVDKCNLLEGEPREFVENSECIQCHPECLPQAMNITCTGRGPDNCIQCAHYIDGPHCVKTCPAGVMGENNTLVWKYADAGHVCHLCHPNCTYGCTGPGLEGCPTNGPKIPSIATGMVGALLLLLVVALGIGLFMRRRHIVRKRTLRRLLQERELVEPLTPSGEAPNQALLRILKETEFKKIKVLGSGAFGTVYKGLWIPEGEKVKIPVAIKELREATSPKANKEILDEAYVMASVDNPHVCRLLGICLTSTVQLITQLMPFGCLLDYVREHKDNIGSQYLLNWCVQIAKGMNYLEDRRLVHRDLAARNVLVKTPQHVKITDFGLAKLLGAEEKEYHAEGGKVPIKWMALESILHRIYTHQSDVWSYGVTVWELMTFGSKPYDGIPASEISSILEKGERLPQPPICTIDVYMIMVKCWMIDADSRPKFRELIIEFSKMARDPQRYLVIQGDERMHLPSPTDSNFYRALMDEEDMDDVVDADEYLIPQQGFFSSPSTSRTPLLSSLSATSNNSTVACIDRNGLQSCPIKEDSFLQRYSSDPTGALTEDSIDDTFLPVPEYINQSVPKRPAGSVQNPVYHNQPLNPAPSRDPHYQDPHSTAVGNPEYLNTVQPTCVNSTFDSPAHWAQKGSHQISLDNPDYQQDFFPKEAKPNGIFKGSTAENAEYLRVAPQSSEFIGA

[5] = molecular target: T2, 5-hydroxytryptamine receptor 1A (Rattus norvegicus, UniProt P19327); assay type: cell membranes, Membrane; settings: cho-k1; note: in other assays of this panel Not Active means under 50% inhibition at 10 µM
T2 sequence (P19327 whole entry): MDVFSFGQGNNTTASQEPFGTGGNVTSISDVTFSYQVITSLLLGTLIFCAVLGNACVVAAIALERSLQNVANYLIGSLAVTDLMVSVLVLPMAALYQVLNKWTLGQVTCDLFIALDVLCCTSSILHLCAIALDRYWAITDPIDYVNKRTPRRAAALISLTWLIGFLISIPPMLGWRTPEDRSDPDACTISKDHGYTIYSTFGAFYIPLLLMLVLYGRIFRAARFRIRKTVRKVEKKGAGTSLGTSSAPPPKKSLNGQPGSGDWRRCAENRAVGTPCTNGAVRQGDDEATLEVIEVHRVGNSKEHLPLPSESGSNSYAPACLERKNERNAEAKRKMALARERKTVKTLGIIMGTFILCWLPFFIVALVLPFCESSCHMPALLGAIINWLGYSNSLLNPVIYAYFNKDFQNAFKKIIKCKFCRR

Nitric oxide synthase 1 = Nitric oxide synthase 1 (Rattus norvegicus, UniProt P29476); assay type: tissue-based, Cerebellum; note: in other assays of this panel Not Active means under 50% inhibition at 10 µM
Chain of Nitric oxide synthase 1 (P29476 whole entry): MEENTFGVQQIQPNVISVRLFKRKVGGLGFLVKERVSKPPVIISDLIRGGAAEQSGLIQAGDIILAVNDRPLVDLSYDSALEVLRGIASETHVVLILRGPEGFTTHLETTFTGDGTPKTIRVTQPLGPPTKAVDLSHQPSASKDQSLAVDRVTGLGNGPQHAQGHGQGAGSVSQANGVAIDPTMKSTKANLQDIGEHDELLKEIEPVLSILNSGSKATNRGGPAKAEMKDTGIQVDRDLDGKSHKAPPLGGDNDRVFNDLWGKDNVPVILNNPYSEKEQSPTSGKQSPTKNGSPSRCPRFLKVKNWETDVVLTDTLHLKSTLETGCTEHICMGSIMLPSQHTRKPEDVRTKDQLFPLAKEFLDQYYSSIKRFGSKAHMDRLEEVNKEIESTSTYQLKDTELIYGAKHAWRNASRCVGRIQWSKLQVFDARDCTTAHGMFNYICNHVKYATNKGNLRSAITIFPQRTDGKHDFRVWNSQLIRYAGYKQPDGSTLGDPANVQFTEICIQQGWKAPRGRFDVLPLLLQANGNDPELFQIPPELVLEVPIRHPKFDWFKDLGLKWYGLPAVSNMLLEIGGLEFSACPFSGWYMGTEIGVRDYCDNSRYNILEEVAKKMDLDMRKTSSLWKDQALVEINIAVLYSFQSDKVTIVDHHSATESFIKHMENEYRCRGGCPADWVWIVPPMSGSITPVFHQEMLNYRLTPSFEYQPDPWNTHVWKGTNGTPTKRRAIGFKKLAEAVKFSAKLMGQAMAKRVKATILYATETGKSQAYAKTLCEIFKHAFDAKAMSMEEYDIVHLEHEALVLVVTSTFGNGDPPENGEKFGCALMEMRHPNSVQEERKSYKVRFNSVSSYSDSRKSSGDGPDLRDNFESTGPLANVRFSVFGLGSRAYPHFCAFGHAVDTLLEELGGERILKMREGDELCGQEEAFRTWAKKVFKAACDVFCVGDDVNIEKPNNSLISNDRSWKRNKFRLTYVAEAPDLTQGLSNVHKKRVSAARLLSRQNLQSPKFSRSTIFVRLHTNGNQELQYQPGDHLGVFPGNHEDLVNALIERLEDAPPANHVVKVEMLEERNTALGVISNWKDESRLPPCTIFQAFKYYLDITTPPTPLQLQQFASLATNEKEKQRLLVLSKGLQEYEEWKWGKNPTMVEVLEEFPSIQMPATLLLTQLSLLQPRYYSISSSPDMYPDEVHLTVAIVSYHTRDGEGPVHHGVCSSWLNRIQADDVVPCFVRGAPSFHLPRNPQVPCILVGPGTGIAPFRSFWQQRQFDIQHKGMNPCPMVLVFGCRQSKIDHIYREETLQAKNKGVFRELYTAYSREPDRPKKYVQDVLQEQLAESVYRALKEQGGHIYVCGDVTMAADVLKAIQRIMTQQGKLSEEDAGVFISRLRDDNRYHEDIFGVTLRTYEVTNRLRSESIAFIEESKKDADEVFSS

Vasopressin V1a receptor = Vasopressin V1a receptor (Homo sapiens, UniProt P37288); assay type: cell membranes, Membrane; settings: hek293; note: in other assays of this panel Not Active means under 50% inhibition at 10 µM
Chain of Vasopressin V1a receptor (P37288 whole entry): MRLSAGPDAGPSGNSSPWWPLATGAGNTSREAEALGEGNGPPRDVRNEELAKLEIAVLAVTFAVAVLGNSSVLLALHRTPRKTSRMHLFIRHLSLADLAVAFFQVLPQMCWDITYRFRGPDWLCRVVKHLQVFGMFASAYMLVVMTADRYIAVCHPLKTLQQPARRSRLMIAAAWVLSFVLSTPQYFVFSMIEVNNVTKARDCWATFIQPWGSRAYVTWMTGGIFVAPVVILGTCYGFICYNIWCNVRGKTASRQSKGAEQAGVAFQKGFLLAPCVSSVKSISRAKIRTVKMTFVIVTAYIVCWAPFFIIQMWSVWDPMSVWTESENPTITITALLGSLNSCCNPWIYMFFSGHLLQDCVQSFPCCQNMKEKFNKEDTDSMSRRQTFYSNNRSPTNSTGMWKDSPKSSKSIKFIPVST

Cathepsin G = molecular target: T3, Cathepsin G (Homo sapiens, UniProt P08311); assay type: tissue-based; settings: neutrophil
T3 sequence (P08311 whole entry): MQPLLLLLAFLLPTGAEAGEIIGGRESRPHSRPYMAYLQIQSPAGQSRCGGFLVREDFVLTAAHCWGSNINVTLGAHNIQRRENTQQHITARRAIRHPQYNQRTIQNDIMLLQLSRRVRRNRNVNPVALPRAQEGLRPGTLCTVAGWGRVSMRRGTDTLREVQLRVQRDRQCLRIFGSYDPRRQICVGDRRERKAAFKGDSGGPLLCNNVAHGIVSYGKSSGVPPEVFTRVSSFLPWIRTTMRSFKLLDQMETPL

[6] = molecular target: Prostaglandin G/H synthase 1 (Homo sapiens, UniProt P23219); test: biochemical; assay type: tissue-based, Platelet; settings: platelet
Chain of Prostaglandin G/H synthase 1 (P23219 whole entry): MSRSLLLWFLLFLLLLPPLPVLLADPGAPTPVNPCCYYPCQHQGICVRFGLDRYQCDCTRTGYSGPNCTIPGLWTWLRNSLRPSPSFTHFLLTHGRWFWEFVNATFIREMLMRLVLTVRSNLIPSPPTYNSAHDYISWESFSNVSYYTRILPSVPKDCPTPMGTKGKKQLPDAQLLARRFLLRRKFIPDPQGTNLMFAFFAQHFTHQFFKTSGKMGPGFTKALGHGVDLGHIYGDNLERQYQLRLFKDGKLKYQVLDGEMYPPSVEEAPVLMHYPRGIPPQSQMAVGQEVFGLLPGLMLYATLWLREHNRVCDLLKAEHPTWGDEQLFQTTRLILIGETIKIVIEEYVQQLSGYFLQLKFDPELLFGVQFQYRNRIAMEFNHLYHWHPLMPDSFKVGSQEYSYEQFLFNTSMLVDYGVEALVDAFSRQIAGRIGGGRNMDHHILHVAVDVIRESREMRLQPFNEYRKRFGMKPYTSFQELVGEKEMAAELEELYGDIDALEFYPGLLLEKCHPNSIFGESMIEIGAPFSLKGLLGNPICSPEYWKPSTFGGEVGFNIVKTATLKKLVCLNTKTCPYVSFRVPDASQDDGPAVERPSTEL

Calcitonin receptor = molecular target: T4, Calcitonin receptor (Homo sapiens, UniProt P30988); assay type: cell membranes, Membrane; settings: t47d; note: in other assays of this panel Not Active means under 50% inhibition at 10 µM
T4 sequence (P30988 whole entry): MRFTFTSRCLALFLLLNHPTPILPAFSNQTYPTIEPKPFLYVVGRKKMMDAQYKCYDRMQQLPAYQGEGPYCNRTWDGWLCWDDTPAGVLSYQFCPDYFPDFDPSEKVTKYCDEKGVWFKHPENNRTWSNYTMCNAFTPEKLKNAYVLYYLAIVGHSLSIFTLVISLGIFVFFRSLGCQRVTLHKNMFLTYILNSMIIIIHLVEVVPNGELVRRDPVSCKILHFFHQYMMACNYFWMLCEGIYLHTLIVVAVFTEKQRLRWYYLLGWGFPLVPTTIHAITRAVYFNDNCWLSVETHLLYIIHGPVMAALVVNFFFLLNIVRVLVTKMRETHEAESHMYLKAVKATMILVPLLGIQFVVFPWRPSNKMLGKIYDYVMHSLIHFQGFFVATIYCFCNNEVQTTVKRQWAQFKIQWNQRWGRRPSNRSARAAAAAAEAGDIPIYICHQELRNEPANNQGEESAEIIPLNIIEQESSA

[7] = molecular target: 5-hydroxytryptamine receptor 2B (Homo sapiens, UniProt P41595); assay type: cell membranes, CHO-K1, Membrane; settings: cho-k1; note: in other assays of this panel Not Active means under 50% inhibition at 10 µM
Chain of 5-hydroxytryptamine receptor 2B (P41595 whole entry): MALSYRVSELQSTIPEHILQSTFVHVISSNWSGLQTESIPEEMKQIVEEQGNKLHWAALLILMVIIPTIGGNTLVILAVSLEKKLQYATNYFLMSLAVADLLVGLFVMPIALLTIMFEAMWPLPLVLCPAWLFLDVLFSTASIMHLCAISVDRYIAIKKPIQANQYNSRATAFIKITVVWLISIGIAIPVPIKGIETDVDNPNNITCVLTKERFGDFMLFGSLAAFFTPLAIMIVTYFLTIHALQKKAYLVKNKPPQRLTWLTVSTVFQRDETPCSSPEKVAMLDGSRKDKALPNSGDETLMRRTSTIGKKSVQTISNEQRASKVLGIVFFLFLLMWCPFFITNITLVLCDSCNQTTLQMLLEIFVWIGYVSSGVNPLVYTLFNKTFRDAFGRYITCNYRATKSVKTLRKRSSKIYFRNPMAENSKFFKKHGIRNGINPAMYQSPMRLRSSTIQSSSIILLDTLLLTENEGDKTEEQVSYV

SMILES | IC50 [1] | Ki [1] | IC50 [2] | IC50 (Cytochrome P450 2E1) | Ki (Cytochrome P450 2E1) | IC50 ([3]; jurkat) | IC50 ([4]; insect cells) | IC50 [5] | IC50 (Nitric oxide synthase 1) | IC50 (Vasopressin V1a receptor) | IC50 (Cathepsin G) | IC50 [6] | IC50 (Calcitonin receptor) | IC50 [7] | IC50 ([3]; read-out: IC50) [µM] | Ki ([3]; read-out: Ki) [µM] | IC50 ([4]; read-out: IC50) [µM]
N[C@H](CSC(=S)NCc1ccccc1)C(=O)O | Not Active | Not Active | Not Active | Not Active | Not Active | Not Active | Not Active | Not Active | Not Active | Not Active | Not Active | Not Active | Not Active | Not Active |  |  | 
Cc1cc(C)nc(NS(=O)(=O)c2ccc(N)cc2)n1 [SULFAMETHAZINE] | Not Active | Not Active | Not Active | Not Active | Not Active | Not Active | Not Active | Not Active | Not Active | Not Active | Not Active | Not Active | Not Active | Not Active |  |  | 
Cc1cccc(Nc2ccncc2S(=O)(=O)NC(=O)NC(C)C)c1 [TORSEMIDE] | Not Active | Not Active | Not Active | Not Active | Not Active | Not Active | Not Active | Not Active | Not Active | Not Active | Not Active | Not Active | Not Active | Not Active |  |  | 
O=C1CCC(N2C(=O)c3ccccc3C2=O)C(=O)N1 (stereo not given) [THALIDOMIDE] | Not Active | Not Active | Not Active | Not Active | Not Active | Not Active | Not Active | Not Active | Not Active | Not Active | Not Active | Not Active | Not Active | Not Active |  |  | 
CC(C)CC(N(C)C)C1(c2ccc(Cl)cc2)CCC1 (stereo not given) [SIBUTRAMINE] | Not Active | Not Active | Not Active | Not Active | Not Active | Not Active | Not Active | Not Active | Not Active | Not Active | Not Active | Not Active | Not Active | Not Active |  |  | 
CC(C)NCC(O)COc1cccc2ccccc12 (stereo not given) [PROPRANOLOL] |  |  | Not Active | Not Active | Not Active |  | Not Active |  | Not Active | Not Active | Not Active | Not Active | Not Active |  | 2.87 | 1.21 | 
COCCOC(=O)C1=C(C)NC(C)=C(C(=O)OC(C)C)C1c1cccc([N+](=O)[O-])c1 (stereo not given) [NIMODIPINE] | Not Active | Not Active | Not Active |  |  | Not Active | Not Active | Not Active | Not Active | Not Active | Not Active | Not Active | Not Active | Not Active |  |  | 
O=C(c1ccc(OCCN2CCCCC2)cc1)c1c(-c2ccc(O)cc2)sc2cc(O)ccc12 [RALOXIFENE] | Not Active | Not Active |  | Not Active | Not Active |  | Not Active | Not Active | Not Active | Not Active | Not Active | Not Active | Not Active |  |  |  | 
CC/C(=C(/CC)c1ccc(O)cc1)c1ccc(O)cc1 [DIETHYLSTILBESTROL] |  |  |  | Not Active | Not Active | Not Active | Not Active | Not Active | Not Active |  | Not Active |  | Not Active |  |  |  | 
C=CCN1CC[C@]23c4c5ccc(O)c4O[C@H]2C(=O)CC[C@@]3(O)[C@H]1C5 [NALOXONE] |  |  | Not Active |  |  | Not Active | Not Active | Not Active | Not Active | Not Active | Not Active | Not Active | Not Active | Not Active |  |  | 
Clc1ccc2c(c1)C(N1CCNCC1)=Nc1ccccc1O2 [AMOXAPINE] |  |  |  | Not Active | Not Active | Not Active | Not Active | Not Active | Not Active | Not Active | Not Active | Not Active | Not Active |  |  |  | 
CC(C)(C)c1ccc(C(O)CCCN2CCC(C(O)(c3ccccc3)c3ccccc3)CC2)cc1 (stereo not given) [TERFENADINE] | Not Active | Not Active | Not Active | Not Active | Not Active | Not Active |  | Not Active | Not Active | Not Active | Not Active | Not Active | Not Active |  |  |  | 3.57
C[C@@H](N)[C@H]1CC[C@H](C(=O)Nc2ccncc2)CC1 [Y-27632] | Not Active | Not Active | Not Active | Not Active | Not Active | Not Active |  | Not Active | Not Active | Not Active | Not Active | Not Active | Not Active | Not Active |  |  | 
CC(C)c1nc(CN(C)C(=O)N[C@H](C(=O)N[C@@H](Cc2ccccc2)C[C@H](O)[C@H](Cc2ccccc2)NC(=O)OCc2cncs2)C(C)C)cs1 [RITONAVIR] | Not Active | Not Active | Not Active |  |  | Not Active | Not Active | Not Active | Not Active |  | Not Active | Not Active | Not Active | Not Active |  |  | 
CN1CCC(=C2c3ccccc3C=Cc3ccccc32)CC1 [CYPROHEPTADINE] |  |  |  | Not Active | Not Active | Not Active | Not Active |  | Not Active | Not Active | Not Active | Not Active | Not Active |  |  |  | 
COc1cc2c(c(OC)c1OC)-c1ccc(OC)c(=O)cc1[C@@H](NC(C)=O)CC2 [COLCHICINE] |  |  | Not Active | Not Active | Not Active | Not Active | Not Active | Not Active | Not Active | Not Active | Not Active | Not Active | Not Active | Not Active |  |  | 
